Data reported in patent publication US8404825B2, “Method for producing monoterpene and monoterpinoid compounds and use thereof” (Board of Regents of the Nevada System of Higher Education, …, priority 2008, dated 2013).

Assays:
I. calligraphus = settings: southeast U.S.; cited from earlier work
recombinant Ipi12D04 = assay: Functional assay of recombinant Ipi12D04 (pyridine nucleotide assay at 340 nm, GC-MS of products); assay type: biochemical, Ips pini; settings: for reaction product of reduction by Ipi12D04 enzyme (stereoisomer by chiral GC): in the presence of NADPH, chiral column, compared with racemic standard
Experimental: Enzyme activity is determined by a pyridine nucleotide (PN) binding assay that monitors production or consumption of NADH/NADPH by measuring the absorbance of the catalysts reaction at 340 nm using a spectrophotometer. The reactions include reaction buffer (0.1 M NaP pH 7.8 and 1.1 mM EDTA), enzyme, PN, and substrate (monoterpene) in a 1 ml total volume and the absorbance was measured over time at room temperature. The volatiles produced from the reactions were extracted three times with pentane:ether (1:1) spiked with 200 n g/ml n-octanol (internal standard) and concentrated to approximately 100 ul with nitrogen gas. The samples were directly analyzed by coupled GC-MS at the Nevada Proteomics Center at UNR.
Enzyme activity was determined by a pyridine nucleotide (PN) binding assay that monitored production or consumption of NADH/NADPH spectrophotometrically. The reaction mixture included reaction buffer (0.1 M NaP pH 7.8 and 1.1 mM EDTA), enzyme, PN, and substrate (monoterpene) in a 1 ml total volume. The absorbance was measured over time at room temperature. The reactions were extracted three times with pentane:ether (1:1) spiked with 200 ng/ml n-octanol (internal standard) to extract monoterpenoids and concentrated to approximately 100 ul with nitrogen gas. The samples were directly analyzed by coupled GC-MS at the Nevada Proteomics Center at UNR.
Biochemical reactions catalyzed by recombinant Ipi12D04, as determined by functional assays, are summarized below. In general, the enzyme functions as an oxidoreductase, using NAD(P) or NAD(P)H as cofactors, depending on whether it is oxidizing or reducing a substrate. […] Negative controls for all reactions included media from un-infected cells.

[1] = system: western populations of Ips pini; settings: cited from earlier work
Ips. typographus = settings: cited from earlier work

For `C=CC(=C)CC(O)C=C(C)C` (single isomer, unassigned; (-)) [(−)-ipsdienol, 2-methyl-6-methylene-2,7-octadien-4-ol], the “behavioural response (attraction / dispersal)” value (I. calligraphus) is given as “attracted”.

For `C=CC(=C)CC(O)C=C(C)C` (single isomer, unassigned; (+)) [(+)-ipsdienol], the “behavioural response (attraction / dispersal)” value (I. calligraphus) is given as “dispersed”.

For `C=CC(=C)CC(=O)C=C(C)C` [ipsdienone], the “reaction product of reduction by Ipi12D04 enzyme (stereoisomer by chiral GC)” value (recombinant Ipi12D04) was “reaction product was pure (−)-ipsdienol”.

In the case of `C=CC(=C)C[C@@H](O)CC(C)C` [(+)-ipsenol], the “expected conversion by Ipi12D04 enzyme” value (recombinant Ipi12D04; enzyme incubated with both NAD(P) and NAD(P)H) was “readily converted to (−)-ipsenol”.

For `C=CC(=C)CC(O)C=C(C)C` (racemic) [racemic ipsdienol, ipsdienol], the “reaction product of oxidation by Ipi12D04 enzyme” value (recombinant Ipi12D04; with NADP, GC and mass spectrum compared with ipsdienone standard) is listed as “converts racemic ipsdienol to ipsdienone” and the “attractiveness as aggregation pheromone” value [1] is listed as “not attractive at all”.

With `C=CC(=C)CC(=O)CC(C)C` [ipsenone] the “reaction product of reduction by Ipi12D04 enzyme (stereoisomer by chiral GC)” value (recombinant Ipi12D04) was “reaction product was pure (−)-ipsdienol”.

In the case of `C=CC(=C)C[C@@H](O)CC(C)C` [ipsenol], the behavioural response (Ips. typographus) is listed as “anti-aggregation pheromone”.
